Values quoted from earlier work, collected in patent publication US20040034083A1, “Combination therapy for the treatment of Parkinson's disease with cyclooxygenase-2 (COX2) inhibitor(s)” (priority 2002, published 2004).

Key:
[1] = levodopa/carbidopa therapy of PD

Question: For `N[C@@H](Cc1ccc(O)c(O)c1)C(=O)O` [levodopa], which “duration of effectiveness after initiation of therapy” value [1] is on record?
Answer: about 5 years

Question: What about the “fraction of levodopa that reaches the brain” value (levodopa alone administered orally) of the same compound?
Answer: about 1%

Question: And the “fraction of orally administered levodopa metabolized by decarboxylase (then unable to cross the BBB)” value (oral administration, without carbidopa)?
Answer: Up to 99%
